Experimental data: US20240190920A1, “BECLIN 1-TARGETED STAPLED PEPTIDE AND PHARMACEUTICAL COMPOSITION” (Shenzhen Research Institute of the Hong Kong Polytechnic …, priority 2021, published 2024)
Entries after “also recorded” stand apart in the source; their conditions may differ. Bridge positions count the residues as written; N and C are the ends. Square brackets hold non-standard residues; d marks the D form. Peptide text beside a SMILES is read from it. R8 = C=CCCCCCC[C@@](C)(N)C(=O)O; S5 = C=CCCC[C@](C)(N)C(=O)O

Legend:
HER2 = experiment: EGF-induced endolysosomal degradation of HER2, Western blot; type: cell-based; conditions: SKBR3, 2 μM
Protocol: (§1) FIG. 9 is a schematic diagram of the result showing peptides based on (I7-01s) scaffold are potent inducers of endolysosomal trafficking. (a-c) Western blot to assess the HER2 and EGFR levels in SKBR3 cells. Cells are starved overnight and are treated with 200 ng/ml EGF respectively with vehicle control (a), 2 μM Tat-SP4 (b), 2 μM i7-01s-31 (c). (d & e) Time-dependent plots to quantify HER2 and EGFR degradation profiles after three independent experiments. The levels of HER2 (d) and EGFR (e) are normalized to the β-actin level at different time points and then further normalized to time 0, when the ligand EGF is added. Data are presented as mean±SEM (n=3).
In some embodiments, the Beclin 1-targeting stapled peptide provided by the present disclosure can effectively promote endolysosomal trafficking. As a scaffolding member of the PI3KC3 complex, Beclin 1 is essential for multiple PI3KC3-dependent processes including autophagy, endolysosomal trafficking and phagocytosis. To assess the efficacy of the newly designed peptides on the endolysosomal trafficking process, the ligand-induced endolysosomal degradation of cell surface receptors HER2 and EGFR is characterized by western blotting using SKBR3 breast cancer cell line that over-expresses both EGFR and HER2. […] In contrast, i7-01s-31 treatment at 2 μM results in significant reduction of HER2 level, with about 50% decrease at 15 hours post EGF stimulation, and about 70% decrease at 24 hours (as shown in FIGS. 9c & 9d). i7-01s-31 treatment also strongly promotes EGFR degradation, with approximately 60% reduction at 15 hours post EGF stimulation (as shown in FIGS. 9c & 9e).
Whole cell lysates are extracted using Laemmli sample buffer (62.5 mM Tris-HCl, pH 6.8, 2% SDS, 25% glycerol, 5% β-mercaptoethanol) supplemented with EDTA-free protease inhibitor cocktail (Roche). Protein concentration is determined using a standard Bradford assay before immunoblotting. Protein samples are separated by SDS-PAGE, transferred to a PVDF membrane (Millipore, USA), and incubated with the primary antibodies and HRP-conjugated secondary antibodies. […]

EGFR = experiment: EGF-induced endolysosomal degradation of EGFR, Western blot; type: cell-based; conditions: SKBR3, 2 μM
Protocol: as §1
In some embodiments, the Beclin 1-targeting stapled peptide provided by the present disclosure can effectively promote endolysosomal trafficking. As a scaffolding member of the PI3KC3 complex, Beclin 1 is essential for multiple PI3KC3-dependent processes including autophagy, endolysosomal trafficking and phagocytosis. […]
Whole cell lysates are extracted using Laemmli sample buffer (62.5 mM Tris-HCl, pH 6.8, 2% SDS, 25% glycerol, 5% β-mercaptoethanol) supplemented with EDTA-free protease inhibitor cocktail (Roche). Protein concentration is determined using a standard Bradford assay before immunoblotting. […]

SKBR3 cells [1] = experiment: Flow cytometry with Annexin V FITC-PI staining; type: cell-based; conditions: for PI positive cells: SKBR3, 10 μM, 24 hours; for change of Annexin V positive cells (apoptosis) / change of PI positive staining cells (dead cells): SKBR3, 24 hours
Protocol: FIG. 12 is a schematic diagram of the result showing the peptides based on strategy (i7-01s) scaffold induce cell death with necrotic features. Flow cytometry analysis with Annexin V FITC-PI staining is performed in SKBR3 cells after treatment of the indicated peptides for 24 hours.
The degree of cellular apoptosis and necrosis is assessed by flow cytometry following the standard protocol provided by the manufacturer. Briefly, SKBR3 cells after the indicated peptide treatment are harvested by trypsin, labelled with Annexin V and PI (Invitrogen), subjected to flow cytometer system (BD Accuri C6), and analyzed by BD Accuri C6 software. The cell populations can be distinguished by the staining of Annexin V/PI. Typically, cellular population in the lower left quadrant is live cells (Annexin V^−, PI^−), the lower right quadrant represents early apoptotic cells (Annexin V^+, PI^−), the upper right quadrant represents late apoptotic cells (Annexin V^+, PI^+), the upper left quadrant represents necrotic cells (Annexin V^−, PI^+).

[2] = target: T1, Beclin 1 coiled coil domain (Homo sapiens, UniProt Q14457); experiment: Isothermal titration calorimetry (ITC) binding affinity; conditions: 25° C., pH 7.4, Tat-fused peptide, read-out: Kd
T1 construct: the coiled coil domain of human Beclin 1 (residues 176-268); thioredoxin-6xHis fusion tag with HRV 3C protease cleavage site; made in house; host or cells: Escherichia coli BL21(DE3)
T1 sequence (Q14457 176-268): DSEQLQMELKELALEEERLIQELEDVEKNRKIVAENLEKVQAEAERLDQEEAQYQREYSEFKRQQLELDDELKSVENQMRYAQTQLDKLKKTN
Protocol: The expression and purification of Beclin 1 coiled coil domain is performed as described previously. Briefly, the coiled coil domain of human Beclin 1 (residues 176-268) is cloned into the modified pET32a vector containing the human rhinovirus (HRV) 3C protease cleavage site and thioredoxin-6×His fusion tag. Recombinant protein for the Beclin1 coiled oil domain is expressed in Escherichia coli BL21(DE3) and purified by Ni^2+-NTA affinity chromatography (His Trap HP, GE Healthcare) first and followed by size-exclusion chromatography (Superdex 75, GE Healthcare).
ITC assays are carried out by MicroCal PEAQ-ITC Automated (Marvern) at 25° C. All designed peptides and purified protein for the Beclin 1 coiled coil domain are dialyzed into the buffer containing 50 mM Tris, 150 mM NaCl at pH 7.4. For each titration assay, the injection syringe is loaded with 40 μl of peptide and the cell is loaded with Beclin 1 coiled coil domain protein. Typically, titrations consist of 19 injections, and each injection is performed at a time interval of 180 seconds to ensure that the titration peak returns to the baseline. The titration data are analyzed using the MicroCal PEAQ-ITC Analysis software and fitted by the one-site binding model.

HEK293T cells [3] = experiment: Trypan blue exclusion cytotoxicity assay in HEK293T cells; type: cell-based
Protocol: FIG. 7 is a schematic diagram of the result of evaluating the cytotoxicity of the newly designed stapled peptide on HEK293T cells by the trypan blue exclusion assay.
(§2) Cell viability is measured by trypan blue exclusion assay following the standard protocol provided by the manufacturer. SKBR3 cells are seeded on 96-well plates containing complete medium at a density of 1×10^4 cells per well. Upon cell attachment, cells are treated with the indicated stapled peptide or vehicle control for 24 hours. Afterwards, the number of trypan blue positive staining cells and the number of total cells are manually counted under a light microscope (Olympus). Cell viability is calculated as the number of viable cells divided by the total number of cells. All experiments are repeated in triplicate and the mean is calculated.

HEK293T cells [4] = experiment: Western blot of autophagy markers LC3 and p62; type: cell-based
Protocol: FIG. 8 is a schematic diagram showing that the peptides based on the i7-01s scaffold are effective inducers of autophagy. (a) Western blot to assess the p62 level and LC3 lipidation profile in HEK293T cells after treatment with 10- and 20-μM i7-01s-31 for 3 hours, in the presence or absence of CQ. (b)&(c) Quantification of LC3 lipidation profiles from the Western blot data. (d)&(e) Quantification of p62 levels from the Western blot data from (a).
The impact of these two peptides on cellular autophagic activity is examined by detecting the protein levels of LC3 and p62, two molecular markers of autophagy. During the autophagy process, cytosolic protein LC3 is converted from its apo form (LC3-I) to lipidated form (LC3-II) for accumulation on autophagosomes. Thus, an increase in LC3-II level is regarded as a reliable indicator of elevated cellular autophagic activity. Similarly, p62 is an autophagy receptor that is degraded in the lysosome together with autophagic substrates. A decrease in p62 level is also commonly used as an indicator for higher autophagic activity, although some studies have shown that p62 is not as sensitive as LC3-II.
Whole cell lysates are extracted using Laemmli sample buffer (62.5 mM Tris-HCl, pH 6.8, 2% SDS, 25% glycerol, 5% β-mercaptoethanol) supplemented with EDTA-free protease inhibitor cocktail (Roche). Protein concentration is determined using a standard Bradford assay before immunoblotting. Protein samples are separated by SDS-PAGE, transferred to a PVDF membrane (Millipore, USA), and incubated with the primary antibodies and HRP-conjugated secondary antibodies. Protein bands are visualized using ECL reagents. β-actin is used as the internal reference protein to control the loading amount of SDS-PAGE.

SKBR3 cells [5] = experiment: Trypan blue exclusion assay, IC50 in SKBR3 cells; type: cell-based; conditions: SKBR3, 24h
Protocol: (§3) (a) Trypan blue exclusion assay to assess the cytotoxicity IC50 (half maximal inhibitory concentration) of the indicated peptides in SKBR3 cells. Cells are treated with various concentrations of the indicated peptides for 24h. Cell numbers are manually counted by the trypan blue exclusion assay using a hemocytometer. Data are presented as mean±SD from three independent experiments. (b-d) Cell proliferation assay is performed over a time span of five days in SKBR3 cells after treatment with the indicated peptides. Cells are treated with the indicated peptides at day 0 and the cell number is calculated at the given time points. The assay is performed in 96 well plates with three independent measurements. Tat-SC4 is a control peptide with scrambled Tat-SP4 sequence but without the hydrocarbon staple.
as §2, with “Upon cell attachment, cells are treated with the indicated stapled peptide or vehicle control for 24 hours.” left out

SKBR3 cells [6] = experiment: Five-day cell proliferation assay; type: cell-based; conditions: SKBR3, five days, 10 μM
Protocol: as §3

## CC[C@H](C)[C@H](NC(=O)[C@H](CC(C)C)NC(=O)[C@H](CCCNC(=N)N)NC(=O)[C@H](CCCNC(=N)N)NC(=O)[C@H](CCCNC(=N)N)NC(=O)[C@H](CCCNC(=N)N)NC(=O)[C@H](CCC(N)=O)NC(=O)[C@H](CCCNC(=N)N)NC(=O)[C@H](CCCNC(=N)N)NC(=O)[C@H](CCCCN)NC(=O)[C@H](CCCCN)NC(=O)[C@H](CCCNC(=N)N)NC(=O)CNC(=O)[C@H](Cc1ccc(O)cc1)NC(C)=O)C(=O)N[C@@H](CO)C(=O)N[C@@H](CCC(=O)O)C(=O)N[C@@H](CC(C)C)C(=O)N[C@]1(C)CCCCCCC=CCCC[C@@](C)(C(=O)N[C@@H](C)C(N)=O)NC(=O)[C@H](CCCNC(=N)N)NC(=O)[C@H](CCC(N)=O)NC(=O)[C@H](CCCCN)NC(=O)[C@H](CCC(=O)O)NC(=O)[C@H](CCCNC(=N)N)NC(=O)[C@H](CC(=O)O)NC1=O [Tat-SP4, Ac-[Tat]-RLISEL(R8)DREKQR(S5)A-NH2, reference compound] (Ac-YGRKKRRQRRRRLISEL[R8]DREKQR[S5]A-NH2; staple 18-25)
HER2; 200 ng/ml EGF
  HER2 degradation profile: does not show any noticeable impact
EGFR; 200 ng/ml EGF
  EGFR degradation profile: does not show any noticeable impact
SKBR3 cells [1]
  PI positive cells: approximately 8%
  change of Annexin V positive cells (apoptosis): no increase
  change of PI positive staining cells (dead cells): significant increase

## CC[C@H](C)[C@@H]1NC(=O)[C@H](C(C)C)NC(=O)[C@H](CC(=O)O)NC(=O)[C@H](C(C)C)NC(=O)[C@H](CC(C)C)NC(=O)[C@](C)(NC(=O)[C@H](CC(N)=O)NC(=O)[C@H](Cc2ccccc2)NC(=O)[C@H](CC(C)C)NC(=O)[C@@H](NC(=O)[C@H](CCCNC(=N)N)NC(=O)[C@H](CCCNC(=N)N)NC(=O)[C@H](CCCNC(=N)N)NC(=O)[C@H](CCC(N)=O)NC(=O)[C@H](CCCNC(=N)N)NC(=O)[C@H](CCCNC(=N)N)NC(=O)[C@H](CCCCN)NC(=O)[C@H](CCCCN)NC(=O)[C@H](CCCNC(=N)N)NC(=O)CNC(=O)[C@H](Cc2ccc(O)cc2)NC(C)=O)C(C)C)CCCCCCC=CCCC[C@@](C)(C(=O)N[C@@H](CCCNC(=N)N)C(=O)N[C@@H](CCCCN)C(=O)N[C@H](C(N)=O)C(C)C)NC(=O)[C@H](CCCCN)NC1=O [i7-01s-31] (Ac-YGRKKRRQRRRVLFN[R8]LVDVIK[S5]RKV-NH2; staple 16-23)
[2]
  Kd: 0.33 ± 0.28 µM
HEK293T cells [3]; 5 μM, 24 hours
  cell viability: little impact on cell viability
HEK293T cells [3]; 20 μM, 24 h
  cytotoxicity: negligible cytotoxicity
HEK293T cells [4]
  autophagy induction compared with Tat-SP4: comparable efficacy
HEK293T cells [4]; 10 and 20 μM, 3 hours, absence of CQ
  LC3-II levels: noticeable albeit small increase
HEK293T cells [4]; 10 and 20 μM, 3 hours, presence of chloroquine (CQ)
  LC3-II levels: significantly stronger
HEK293T cells [4]; 10 and 20 μM, 3 hours, presence or absence of CQ
  protein level of p62: does not show any noticeable change
HER2; 15 hours post EGF stimulation
  decrease of HER2 level: about 50%
HER2; 24 hours post EGF stimulation
  decrease of HER2 level: about 70%
EGFR; 15 hours post EGF stimulation
  reduction of EGFR: approximately 60%
SKBR3 cells [5]
  IC50: 7.12 µM
SKBR3 cells [6]
  effect on cell proliferation: completely abolish cell proliferation
SKBR3 cells [1]
  PI positive cells: approximately 30%
  change of Annexin V positive cells (apoptosis): without notable changes; also recorded: no increase
  change of PI positive staining cells (dead cells): significantly increased; also recorded: significant increase
